The values below are quoted from earlier work in US20030004177A1, “Abuse-resistant opioid dosage form” (Endo Pharmaceuticals, Inc., priority 2001, published 2003).

Read-outs that look alike come from different tables or passages of the source.

The test system of one data set is opioid effect. To be noted: injection or intranasal administration.

For the compound `C=CCN1CC[C@]23c4c5ccc(O)c4O[C@H]2C(=O)CC[C@@]3(O)[C@H]1C5` [naloxone], the bioavailability result is “very low” (administered orally) and “high” (administered parenterally). Further, the “amount needed to antagonize the opioid effect, to induce abstinence in dependent individuals, and to prevent abuse” value with opioid effect is 0.2 to 0.4 mg.
